From patent publication US5919769A, “Fucose derivatives, drugs containing the same as active ingredient, and intermediates for producing the same” (Kanebo, Ltd, priority 1995, dated 1999)
pIC50: −log10 of the molar value.

Legend:
[1] = Inhibitory effects on ear swelling (ovalbumin-sensitized mice); type: in vivo, Female BALB/c mice; conditions: tail vein at 2, 5 and 8 hours, 24 hours after induction
Procedure: Inhibitory effects on ear swelling:
(§1) Female BALB/c mice (6-weeks old) were sensitized by intraperitoneal injection of saline (0.5 ml) containing ovalbumin ([…]) and aluminum hydroxide gel (4 mg). Two weeks after the sensitization, a 1 mg/ml solution of ovalbumin in phosphate buffered saline (10 μl) was subcutaneously injected to the mice at both of the ears to induce the inflammatory response. In the non-inflammation group, phosphate buffered saline was subcutaneously injected to the sensitized mice instead.
(§2) The test compound was dissolved in 0.01N-NaOH-saline so as to be a concentration of 1 mg/ml, and the solution was diluted with saline. The test compound solution thus prepared was injected to the mice at the tail vein, at 2, 5 and 8 hours after the induction of inflammatory response, in a dosage volume of 0.1 ml/10 g of body weight (the treated group). In the control group, saline only was injected to the mice.
Twenty-four hours after the induction of inflammatory response, both of the ears were cut to collect a piece of 6 mm diameter, and the weight thereof was measured. The ear weight per area was used as an index for ear swelling. The inhibitory rate on ear swelling was calculated by the following equation. [formula] Wexp: Average ear weight in the treated group Wnega: Average ear weight in the non-inflammation group
Wcont: Average ear weight in the control group

P-selectin = experiment: Inhibitory test on the binding of P-selectin to sialyl Le^X (selectin-IgG chimera); conditions: inhibition of P-selectin IgG chimera binding to sialyl Le^X-pentaceramide
Procedure: Inhibitory test on the binding of P-selectin to sialyl Le^X :
(§3) The experiment was carried out according to the method using selectin-IgG chimera, which was reported by Foxall, C. et al. (J. Cell Biol., 117, 895-902 (1992)).
(§4) Sialyl Le^X -pentaceramide was dissolved in 50% methanol in distilled water, and the solution was put into a 96-well plate in an amount of 100 pmol/well. The plate was allowed to stand at room temperature overnight, and the solvent therein was evaporated. The plate was washed with distilled water, and subjected to blocking with 50 mM imidazole buffer (pH 7.2) containing 5% BSA (bovine serum albumin) and 1 mM calcium chloride at room temperature for one hour.
(§5) Separately, to 500-fold diluted solution of each biotinylated anti-human IgG Fc and streptavidin-alkaline phosphatase conjugate with a 50 mM imidazole buffer (pH 7.2) containing 1% BSA and 1 mM calcium chloride, P-selectin IgG chimera was added to give a final concentration of 40 μg/ml, and the mixture was incubated at room temperature for 30 minutes to give the complex solution.
(§6) A test compound was dissolved in DMSO (except that the test compound h was dissolved in distilled water) to give 10 mM aqueous solution thereof, which was serially diluted with 50 mM imidazole buffer (pH 7.2) containing 1% BSA and 1 mM calcium chloride to give the solutions in 8 various concentrations (two-fold serial dilution from 20 μM). The test compound solution in each concentration and the above complex solution were mixed in equal volume, and the mixture was incubated at room temperature for 30 minutes to give the reaction solution.
(§7) After the blocking was completed, the blocking solution in the above plate was discarded, and the plate was washed with 50 mM imidazole buffer (pH 7.2), and thereto was added the above reaction solution in an amount of 50 μl/well. The plate was incubated at 37° C. for 45 minutes, and then washed three times with 50 mM imidazole buffer (pH 7.2) and washed three times with distilled water. 1M diethanolamine (pH 9.8) containing 0.01% magnesium chloride and 1 mg/ml p-nitrophenyl phosphate was put into each well in an amount of 50 μl/well, and the plate was allowed to stand for 1 to 2 hours for color development. The absorbance at 405 nm was measured, and the binding rate (%) was calculated by the following equation, based on the absorbance (X) of the wells containing a test compound at various concentrations and the absorbance (A) of the wells containing no test compound.
(§8) IC50 was evaluated by probit method from the binding rate.

cell infiltration [2] = experiment: Inhibitory effects on the peritoneal inflammation induced by thioglycollate (cell infiltration, MPO activity); type: in vivo, Male BALB/C mice; conditions: 10 mg/kg, tail vein just before and one hour after induction, peritoneal exudate cells
Procedure: Inhibitory effects on the peritoneal inflammation induced by thioglycollate:
Male BALB/C mice (11-weeks old) were peritoneally injected with 3% thioglycollate medium (1 ml) to induce the inflammation. In the non-inflammation group, saline was peritoneally injected to the mice. Two hours thereafter, the mice were killed with […], and the peritoneal cavity was washed with a phosphate buffered saline containing 0.1% BSA, 0.5 mM EDTA, 10 U/ml heparin to collect the exudate cells. The red blood cells were lysed, and the exudate cells were lysed in 50 mM potassium phosphate buffer containing 0.5% hexadecyltrimethylammonium bromide. The MPO activity in the supernatant was measured according to the Bradley's method (see the above reference).
The test compound was dissolved in 0.0012M arginine-containing saline solution so as to be a concentration of 1 mg/ml. The test compound solution was injected to the mice at the tail vein in a dosage volume of 0.1 ml/10 g of the body weight, at just before and one hour after the induction of inflammation response (the treated group). In the control group, saline solution was injected to the mice.
The cell infiltration inhibitory rate was calculated in the same manner as in Experiment 4, by the equation 3.

[3] = Oral toxicity observation in mice; type: in vivo; conditions: 1000 mg/kg orally, observed for one week
Excerpt: Moreover, the compound (I) of the present invention or a salt thereof show low toxicity. […] Therefore, the compound (I) of the present invention or a salt thereof is useful as a medicament.

cell infiltration [4] = experiment: Inhibitory effects on cell infiltration (MPO activity in ear tissue of Experiment 3); type: in vivo, Female BALB/c mice; conditions: tail vein at 2, 5 and 8 hours
Procedure: as §1, §2
Inhibitory effects on cell infiltration:
According to the report by Bradley, P. P. et al, (cf., Journal of Investigative Dermatology, 78, 206-209 (1982)), the activity of myeloperoxidase (hereinafter, referred to as MPO) in the tissue was used as an index for cell infiltration.
The ear tissue, the weight of which was measured in Experiment 3, was homogenized, and centrifuged. The MPO activity in the supernatant was measured by using the absorbance at 450 nm (hereinafter, referred to as OD) of o-dianisidine as an index, according to the method of Bradley, et al. (see the above reference).
The inhibitory rate on cell infiltration was calculated by the following equation. [formula] ODexp: Average OD in the treated group ODnega: Average OD in the non-inflammatory group
ODcont: Average OD in the control group

L-selectin = experiment: Inhibitory test on the binding of L-selectin to sialyl Le^X (selectin-IgG chimera); conditions: inhibition of L-selectin IgG chimera binding to sialyl Le^X-pentaceramide
Procedure: as §3, §4, §5, §6, §7, §8
Inhibitory test on the binding of L-selectin to sialyl Le^X :
The same procedures of Experiment 1 were repeated except that L-selectin IgG chimera (40 μg/ml) was used instead of P-selectin IgG chimera (40 μg/ml).

CCCCCCCCCCCCCCC(CCCCCCCCCCCCCC)C(=O)N[C@H](CO[C@@H]1O[C@H]([C@H](C)O)[C@@H](O)[C@@H]1O)C(=O)N[C@@H](CCC(=O)O)C(=O)NC [compound c, [N-(2-tetradecylhexadecanoyl)-O-(α-L-fucofuranosyl)-D-seryl]-L-glutamic acid 1-methylamide]
Ear swelling inhibitory rate ([1]; 0.1 mg/kg): 45%
Ear swelling inhibitory rate ([1]; 1 mg/kg): 59%
Ear swelling inhibitory rate ([1]; 10 mg/kg): 86%
pIC50 (P-selectin): 6.52
Cell infiltration inhibitory rate (cell infiltration [2]): 64%
change observed after oral administration [3]: no significant change was observed
Cell infiltration inhibitory rate (cell infiltration [4]; 0.1 mg/kg): 19%
Cell infiltration inhibitory rate (cell infiltration [4]; 1 mg/kg): 34%
Cell infiltration inhibitory rate (cell infiltration [4]; 10 mg/kg): 64%
pIC50 (L-selectin): 6.30
